Assay [1] concerns OXA-induced allodynia model rats. Briefly: Cold stimulation (acetone) test in OXA-induced allodynia model rats. The format is in vivo, rat. The note with it: OXA 10 mg/kg i.p. Days 1 and 2; PC-SOD 1 mg/kg caudal vein, prophylactic; FIG. 2. The method, then:
Five-week-old male SD rats (from 200 to 400 g) were used as laboratory animals, and OXA was administered into the peritoneal cavity of rats at a dose of 10 mg/kg. A total of two doses were given (Days 1 and 2). A solvent for OXA, i.e., a 5% glucose solution, was similarly administered to a control group.
Laboratory animals were divided into three groups (n=8 per group): a control group, an OXA administration group, and a group receiving administration of OXA and PC-SOD 1 mg/kg (OXA+PC-SOD administration group). For the OXA+PC-SOD administration group, PC-SOD was administered into the caudal vein from 15 minutes after administration of OXA as prophylactic administration. A total of two doses were given (Days 1 and 2). A solvent for PC-SOD was similarly administered to the control group and the OXA administration group.
Rats were placed in a container with a wire net bottom and acclimatized for 30 minutes, and then 0.1 mL of acetone was sprayed onto their hindlimb by using a spray for an organic solvent (No. 3530, Furupla Co., Ltd.) to give a cold stimulus by utilizing a cooling action at the time of vaporization of acetone. […] Specifically, the responses were assessed by scoring with four levels (Scores 0, 1, 2, and 3). Score 0 was to be given if animals were unresponsive as in a resting state. […]

For a further assay, the system named is RAW cells. Briefly: Active oxygen production in RAW cells (MitoSOX Red). The format is cell-based. The settings on record: gemcitabine, oxaliplatin, cisplatin or carboplatin with simultaneous PC-SOD, 16 hours; FIG. 13-2. On the procedure: RAW cells were seeded on a 96-well plate for fluorescence at 20 000 cells/well (D-MEM high glucose medium containing 10% inactivated FBS). […] Sixteen hours later, cells were treated with an HBSS solution containing dissolved MitoSOX™ Red Mitochondrial Superoxide Indicator (Invitrogen™) for 30 minutes, and the medium was replaced with D-MEM high glucose medium containing 1% inactivated FBS. Active oxygen production in mitochondria was determined by measuring fluorescence (Ex 510 nm, Em 580 nm) by using a plate reader (Infinite M Plex, Tecan). Cells for four wells were analyzed for each group.

As to “lecithinized superoxide dismutase [PC-SOD]”, in assay [1], the “increase in score for cold stimulus (acetone test)” value is “significantly suppressed”. Moreover, in the assay with RAW cells, the “anticancer agent-dependent production of active oxygen in RAW cells” value is reported as “significantly suppressed the anticancer agent-dependent production of active oxygen dependently on the concentration of PC-SOD”.
